Test results from patent US20240245800A1, “HIGHLY SPECIFIC RABBIT SINGLE -DOMAIN ANTIBODIES FOR DRUG DELIVERY IN IMMUNOTHERAPY APPLICATIONS” (TECHNOPHAGE, INVESTIGAÇÃO E DESENVOLVIMENTO EM …, priority 2021, published 2024).

Assays:
[1] = system: LN229 cell line; test: BEB-glioblastoma (BEB-GBM) in vitro model: LN229 viability; format: cell-based; parameters: dose or concentration left out as unconfirmed; conditions: PAN free added to apex, 24 h
Method: FIG. 18. Activity of liposomal drug delivery in the BEB-Glioblastoma model, wherein an in vitro BEB-GBM model was developed to mimic the complexity of drug delivery to a brain tumour. This model combined a monolayer of bEnd.3, as the BBB barrier, and the LN229 cell line at the base as the glioblastoma tumour.
FIG. 18B. PAN encapsulated RG3 and FC5 functionalized liposomes were analysed in terms of BEB translocation and delivery of PAN to a glioblastoma cell line and compared with non-functionalized unloaded liposomes (Control). […] The cytotoxic effect of PAN in LN229 was determined by adding WST-1 reagent. The values were obtained from duplicates of two independent experiments ([…]).

[2] = system: bEnd.3
Method: The integrity of the bEnd.3 was measured by determining the translocation of the FD40 fluorescent probe while LN229 viability was determined using WST-1 reagent and OD450 nm measurement following 24 h incubation, and
The in vitro BEB models were optimized based on previous studies [45]. Briefly, bEnd.3 cells were cultured in DMEM, supplemented with 10% FBS and 1% penicillin/streptomycin (Lonza, Basel, Switzerland) antibiotic solution. Cells were cultured in a humidified atmosphere of 5% CO2 at 37° C. and the medium changed every other day. […] Samples were recovered from the apex and base and fluorescence intensity was measured in a microtiter plate reader (BMG Labtech, Fluostar OPTIMA, Ortenberg, Germany) with an excitation of 485 nm and a maximum emission at 520 nm.
To study the BEB translocation efficiency of the Lip-PAN-RG3 and Lip-PAN-FC5 liposomes and subsequent drug delivery and cytotoxic activity of PAN in a glioblastoma cell line, a dual in vitro non-contact co-culture model was established with bEnd.3 and LN229 cells. […] Following the 24 h treatment, WST-1 was added to the plate, and O.D.450 nm was measured following 24 h incubation. Each data point was determined using three replicate wells and two independent experiments were carried out in different days. […] In parallel, the integrity of the BEB model was measured as described previously.

Compound: Cc1[nH]c2ccccc2c1CCNCc1ccc(/C=C/C(=O)NO)cc1 [PAN, panobinostat]
- effect on LN229 viability in BEB-GBM model [1]: no significant effect
- effect on BEB integrity in BEB-GBM model [2]: no significant effect
